Columns and labels:
morningglory [1] = test: Test A preemergence; type: in vivo, Ipomoea spp.; settings: 0 to 100 scale (0 no effect, 100 complete control)
Text: (§1) Seeds of plant species selected from barnyardgrass (Echinochloa crus-galli), crabgrass, large (large crabgrass, Digitaria sanguinalis), kochia (Kochia scoparia), ragweed (common ragweed, Ambrosia elatior), foxtail, giant (giant foxtail, Setaria faberii), morningglory (Ipomoea spp.), pigweed (Amaranthus retroflexus), velvetleaf (Abutilon theophrasti), ryegrass, Italian (Italian ryegrass, Lolium multiflorum), wheat (Triticum aestivum), and corn (Zea mays) were planted into a blend of loam soil and sand and treated preemergence with a directed soil spray using test chemicals formulated in a non-phytotoxic solvent mixture which included a surfactant. At the same time, plants selected from these crop and weed species and also blackgrass (Alopecurus myosuroides), and galium (catchweed bedstraw, Galium aparine), were planted in pots containing the same blend of loam soil and sand and treated with postemergence applications of test chemicals formulated in the same manner. Plants ranged in height from 2 to 10 cm and were in the one- to two-leaf stage for the postemergence treatment. […] A dash (-) response means no test result.

ducksalad = test: Test B flooded paddy test; type: in vivo, Heteranthera limosa; settings: applied to paddy water at 2-leaf stage, visual rating after 13 to 15 d, scale 0 (no effect) to 100 (complete control)
Text: (§2) At time of treatment, test pots were flooded to 3 cm above the soil surface, treated by application of test compounds directly to the paddy water, and then maintained at that water depth for the duration of the test. Treated plants and controls were maintained in a greenhouse for 13 to 15 d, after which time all species were compared to controls and visually evaluated. […] A dash (-) response means no test result.

foxtail, giant [2] = test: Test A preemergence; type: in vivo, Setaria faberii; settings: 0 to 100 scale (0 no effect, 100 complete control)
How it was run: (§3)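 Herbicidal response was scored on plants treated pre- or postemergence with surfactant-containing, non-phytotoxic solvent formulations. Preemergence meant a directed spray onto soil (loam–sand) holding sown seed; postemergence plants were at one to two leaves.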

rice = test: Test B flooded paddy test; type: in vivo, Oryza sativa; settings: applied to paddy water at 2-leaf stage, visual rating after 13 to 15 d, scale 0 (no effect) to 100 (complete control)
Text: as §2

morningglory [3] = test: Test A postemergence; type: in vivo, Ipomoea spp.; settings: 0 to 100 scale (0 no effect, 100 complete control), approx. 10 d
Text: as §1

foxtail, giant [4] = test: Test A postemergence; type: in vivo, Setaria faberii; settings: 0 to 100 scale (0 no effect, 100 complete control), approx. 10 d
How it was run: as §3

corn [5] = test: Test A postemergence; type: in vivo, Zea mays; settings: 0 to 100 scale (0 no effect, 100 complete control), approx. 10 d
How it was run: as §3

barnyardgrass [6] = test: Test B flooded paddy test; type: in vivo, Echinochloa crus-galli; settings: applied to paddy water at 2-leaf stage, visual rating after 13 to 15 d, scale 0 (no effect) to 100 (complete control)
Text: as §2

pigweed [7] = test: Test A postemergence; type: in vivo, Amaranthus retroflexus; settings: 0 to 100 scale (0 no effect, 100 complete control), approx. 10 d
How it was run: as §3

crabgrass, large [8] = test: Test A postemergence; type: in vivo, Digitaria sanguinalis; settings: 0 to 100 scale (0 no effect, 100 complete control), approx. 10 d
Text: as §1

pigweed [9] = test: Test A preemergence; type: in vivo, Amaranthus retroflexus; settings: 0 to 100 scale (0 no effect, 100 complete control)
How it was run: as §3

wheat [10] = test: Test A preemergence; type: in vivo, Triticum aestivum; settings: 0 to 100 scale (0 no effect, 100 complete control)
Text: as §1

corn [11] = test: Test A preemergence; type: in vivo, Zea mays; settings: 0 to 100 scale (0 no effect, 100 complete control)
Text: as §1

wheat [12] = test: Test A postemergence; type: in vivo, Triticum aestivum; settings: 0 to 100 scale (0 no effect, 100 complete control), approx. 10 d
How it was run: as §3

barnyardgrass [13] = test: Test A preemergence; type: in vivo, Echinochloa crus-galli; settings: 0 to 100 scale (0 no effect, 100 complete control)
How it was run: as §3

crabgrass, large [14] = test: Test A preemergence; type: in vivo, Digitaria sanguinalis; settings: 0 to 100 scale (0 no effect, 100 complete control)
Text: as §1

sedge, umbrella = test: Test B flooded paddy test; type: in vivo, Cyperus difformis; settings: applied to paddy water at 2-leaf stage, visual rating after 13 to 15 d, scale 0 (no effect) to 100 (complete control)
Text: as §2

velvetleaf [15] = test: Test A preemergence; type: in vivo, Abutilon theophrasti; settings: 0 to 100 scale (0 no effect, 100 complete control)
Text: as §1

barnyardgrass [16] = test: Test A postemergence; type: in vivo, Echinochloa crus-galli; settings: 0 to 100 scale (0 no effect, 100 complete control), approx. 10 d
How it was run: as §3

velvetleaf [17] = test: Test A postemergence; type: in vivo, Abutilon theophrasti; settings: 0 to 100 scale (0 no effect, 100 complete control), approx. 10 d
Text: as §1

| Compound | Plant response rating, Morningglory (morningglory [1]; 125 g ai/ha) | Plant response rating, Morningglory (morningglory [1]; 500 g ai/ha, approx. 10 d) | Plant response rating, Foxtail, Giant (foxtail, giant [2]; 125 g ai/ha) | Plant response rating, Foxtail, Giant (foxtail, giant [2]; 500 g ai/ha, approx. 10 d) | Plant response rating, Morningglory (morningglory [3]; 125 g ai/ha) | Plant response rating, Morningglory (morningglory [3]; 500 g ai/ha) | Plant response rating, Foxtail, Giant (foxtail, giant [4]; 125 g ai/ha) | Plant response rating, Foxtail, Giant (foxtail, giant [4]; 500 g ai/ha) | Plant response rating, Corn (corn [5]; 125 g ai/ha) | Plant response rating, Corn (corn [5]; 500 g ai/ha) | Plant response rating, Pigweed (pigweed [7]; 125 g ai/ha) | Plant response rating, Pigweed (pigweed [7]; 500 g ai/ha) | Plant response rating, Crabgrass, Large (crabgrass, large [8]; 125 g ai/ha) | Plant response rating, Crabgrass, Large (crabgrass, large [8]; 500 g ai/ha) | Plant response rating, Pigweed (pigweed [9]; 125 g ai/ha) | Plant response rating, Pigweed (pigweed [9]; 500 g ai/ha, approx. 10 d) | Plant response rating, Wheat (wheat [10]; 125 g ai/ha) | Plant response rating, Wheat (wheat [10]; 500 g ai/ha, approx. 10 d) | Plant response rating, Corn (corn [11]; 125 g ai/ha) | Plant response rating, Corn (corn [11]; 500 g ai/ha, approx. 10 d) | further results |
| --- | --- | --- | --- | --- | --- | --- | --- | --- | --- | --- | --- | --- | --- | --- | --- | --- | --- | --- | --- | --- | --- |
| CCc1nc(-c2ccc(F)cc2)nn1Cc1ccnc(C(F)(F)F)c1 [Compound 2] | 0 | 60 | 80 | 100 | 70 | 90 | 70 | 90 | 20 | 90 | 100 | 100 | 70 | 100 | 100 | 100 | 0 | 20 | 0 | 0 | Plant response rating, Ducksalad, Flood (ducksalad; 125 g ai/ha): 30; Plant response rating, Rice, Flood (rice; 125 g ai/ha): 20; Plant response rating, Barnyardgrass, Flood (barnyardgrass [6]; 125 g ai/ha): 0; Plant response rating, Wheat (wheat [12]; 125 g ai/ha): 0; Plant response rating, Wheat (wheat [12]; 500 g ai/ha): 70; Plant response rating, Barnyardgrass (barnyardgrass [13]; 125 g ai/ha): 0; Plant response rating, Barnyardgrass (barnyardgrass [13]; 500 g ai/ha, approx. 10 d): 80; Plant response rating, Crabgrass, Large (crabgrass, large [14]; 125 g ai/ha): 100; Plant response rating, Crabgrass, Large (crabgrass, large [14]; 500 g ai/ha, approx. 10 d): 100; Plant response rating, Sedge, Umbrella, Flood (sedge, umbrella; 125 g ai/ha): 75; Plant response rating, Velvetleaf (velvetleaf [15]; 125 g ai/ha): 0; Plant response rating, Velvetleaf (velvetleaf [15]; 500 g ai/ha, approx. 10 d): 40; Plant response rating, Barnyardgrass (barnyardgrass [16]; 125 g ai/ha): 20; Plant response rating, Barnyardgrass (barnyardgrass [16]; 500 g ai/ha): 90; Plant response rating, Velvetleaf (velvetleaf [17]; 125 g ai/ha): 30; Plant response rating, Velvetleaf (velvetleaf [17]; 500 g ai/ha): 100 |
| CCCOc1nc(-c2ccc(F)cc2)nn1Cc1ccnc(C(F)(F)F)c1 [Compound 10] | 10 | 20 | 100 | 100 | 50 | 90 | 50 | 90 | 20 | 30 | 100 | 100 | 40 | 90 | 100 | 100 | 0 | 20 | 0 | 20 | Plant response rating, Ducksalad, Flood (ducksalad; 125 g ai/ha): 70; Plant response rating, Rice, Flood (rice; 125 g ai/ha): 20; Plant response rating, Barnyardgrass, Flood (barnyardgrass [6]; 125 g ai/ha): 45; Plant response rating, Wheat (wheat [12]; 125 g ai/ha): 10; Plant response rating, Wheat (wheat [12]; 500 g ai/ha): 10; Plant response rating, Barnyardgrass (barnyardgrass [13]; 125 g ai/ha): 30; Plant response rating, Barnyardgrass (barnyardgrass [13]; 500 g ai/ha, approx. 10 d): 100; Plant response rating, Crabgrass, Large (crabgrass, large [14]; 125 g ai/ha): 100; Plant response rating, Crabgrass, Large (crabgrass, large [14]; 500 g ai/ha, approx. 10 d): 100; Plant response rating, Sedge, Umbrella, Flood (sedge, umbrella; 125 g ai/ha): 80; Plant response rating, Velvetleaf (velvetleaf [15]; 125 g ai/ha): 0; Plant response rating, Velvetleaf (velvetleaf [15]; 500 g ai/ha, approx. 10 d): 30; Plant response rating, Barnyardgrass (barnyardgrass [16]; 125 g ai/ha): 40; Plant response rating, Barnyardgrass (barnyardgrass [16]; 500 g ai/ha): 80; Plant response rating, Velvetleaf (velvetleaf [17]; 125 g ai/ha): 50; Plant response rating, Velvetleaf (velvetleaf [17]; 500 g ai/ha): 80 |
| CSc1nc(-c2ccc(F)cc2)nn1Cc1ccnc(C(F)(F)F)c1 [Compound 21] | 0 | 0 | 0 | 60 | 20 | 30 | 10 | 20 | 10 | 20 | 30 | 80 | 20 | 20 | 10 | 90 | 0 | 0 | 0 | 0 | Plant response rating, Ducksalad, Flood (ducksalad; 250 g ai/ha): 95; Plant response rating, Rice, Flood (rice; 250 g ai/ha): 25; Plant response rating, Barnyardgrass, Flood (barnyardgrass [6]; 250 g ai/ha): 80; Plant response rating, Wheat (wheat [12]; 125 g ai/ha): 0; Plant response rating, Wheat (wheat [12]; 500 g ai/ha): 10; Plant response rating, Barnyardgrass (barnyardgrass [13]; 125 g ai/ha): 0; Plant response rating, Barnyardgrass (barnyardgrass [13]; 500 g ai/ha, approx. 10 d): 0; Plant response rating, Crabgrass, Large (crabgrass, large [14]; 125 g ai/ha): 10; Plant response rating, Crabgrass, Large (crabgrass, large [14]; 500 g ai/ha, approx. 10 d): 80; Plant response rating, Sedge, Umbrella, Flood (sedge, umbrella; 250 g ai/ha): 90; Plant response rating, Velvetleaf (velvetleaf [15]; 125 g ai/ha): 0; Plant response rating, Velvetleaf (velvetleaf [15]; 500 g ai/ha, approx. 10 d): 0; Plant response rating, Barnyardgrass (barnyardgrass [16]; 125 g ai/ha): 0; Plant response rating, Barnyardgrass (barnyardgrass [16]; 500 g ai/ha): 10; Plant response rating, Velvetleaf (velvetleaf [17]; 125 g ai/ha): 10; Plant response rating, Velvetleaf (velvetleaf [17]; 500 g ai/ha): 20 |
